According to patent US20260077065A1, “Compositions and Methods for Assessing Kinase Activity” (The Board of Trustees of the Leland Stanford Junior …, priority 2022, published 2026):

Experiments:
[1] = system: ERK; test: U87-EGFRvIII stable tKiMBI/tKiMBImut reporter cell lines, bioluminescence; format: cell-based, human; conditions: for induction of bioluminescence: tKiMBI-expressing cells; for effect on bioluminescence of control cell lines: tKiMBImut-expressing cells
Experimental: Next, the ability of KiMBIs to report ERK kinase inhibition in human tumor xenografts in mice was tested. U87-EGFRvIII cells were transduced with lentiviruses expressing tKiMBI-T2A-AkaLuc, where AkaLuc allows kinase-independent tracking of tumor location and size (FIG. 6a). Transduced cells were sorted by fluorescence-activated cell sorting (FACS) and selected by antibiotics to generate polyclonal stable cell lines.
Generation of KiMBI-expressing stable tumor cell lines. U87-EGFRvIII and LN229 cells were lentiviral transduced with pLL3.7m-CMV-KiMBI-T2A-AkaLuc-P2A-Blasticidin. Then, 72 h after transfection, cells were dissociated with trypsin and resuspended in DMEM and then changed to PBS. Suspended cells were sorted for the population with medium fluorescence level (20-40%) on a fluorescence-activated cell sorter (FACS), the FACSJazz (BD Biosciences) at Stanford Shared FACS Facility. After cell sorting, the KiMBI-expressing cells were maintained and passaged in corresponding culture medium supplemented with blasticidin (6 μg/mL for both cell lines) to select for stable polyclonal cell lines. Flow cytometry data were analyzed on FlowJo software. The stable KiMBI expression was validated by examination of tdTomato fluorescence in tKiMBI (and its variants) using an EVOS FL Autoimaging system (Thermo Scientific).
(§1) In vitro cell-based bioluminescent assay. Cells were seeded into 96-well Lumitrac plate (Greiner Bio-One) at a density of 1.5-2×10^4 cells per well. After 24 h, cells were transiently transfected with KiMBI-expressing plasmids (5-10 ng per well) with or without caMEK-expressing plasmids (50 ng per well, empty pcDNA3.1 as negative control to keep total transfected DNA amount consistent) using lipofectamine 3000 (Invitrogen) following manufacturer's instructions. For the stable polyclonal KiMBI-expressing cell liens, this lipofection step was skipped. At 24 h after transfection, the cells were treated with drugs at desired concentration in opti-MEM reduced-serum medium (Thermo Fisher) for 1-1.5 hours. Then, for assaying luminescence, Nano-Glo live cell assay system (Promega) was used following manufacturer's instructions. Time-lapse live luminescence was recorded on Safire-2 microplate reader (Tecan) with 100 ms integration and one read per min for 20 min. Luminescence spectrum was measured on a Varioskan LUX multimode microplate reader (Thermo Scientific) using the spectral scanning protocol with 1 s integration for each wavelength at 400-680 nm (1 nm per data point).

[2] = system: ERK; test: Imaging of ERK inhibition in intracranially implanted U87-EGFRvIII cells; format: in vivo, mice
Experimental: Tested next was whether KiMBI can report ERK inhibition in the brain tumor xenograft model.
U87-EGFRvIII xenografts are known to disrupt the BBB^16. When the BBB-impermeant GSK1120212 (1 mg/kg i.p.) was administered to the same group of mice, a positive response was also observed, with ˜150% higher tKiMBI signal.
(§2) General procedures of kinase inhibitor injection and in vivo bioluminescence imaging. […] For KiMBI (NanoLuc-based bioluminescent reporter) imaging, mice were i.p. injected with either 1.3 μmol (0.56 mg) of fluorofurimazine (FFz) or cephalofurimazine (CFz) in 150 μl of injectable formulation containing 6 mg poloxamer-407 (P-407) in Dulbecco Phosphate Buffered Saline (DPBS, without Ca^2+ or Mg^2+, no. 21-031-CV, Corning) for imaging. Immediately after luciferin administration, mice were anesthetized using isoflurane, and images were acquired in the Ami HT optical imaging system every 1 min for 10 min, with an air flow containing 1-2% isoflurane for stable anesthesia. Imager settings were: emission filter, open; field of view, 25 cm; f-stop 1.2; binning, 2×2 and exposure time, 30 s. Images were analyzed in Aura 4.0 in vivo imaging software. The above-mentioned conditions and settings were for most in vivo studies unless otherwise stated in the specific procedures.
Molecular imaging of ERK inhibition in intracranially implanted cells. The stereotaxic injection on the 7- to 9-week-old male J:NU mice were similar to the afore-mentioned AAV infection surgery. A Hamilton syringe with a 26-gauge needle was inserted 0.62 mm […] and 1.75 mm lateral to the bregma to a depth of 3.5 mm, and after a 2 min wait the needle was pulled back 0.5 mm to allow space for the cell suspension. Following this, 3×10^4 KiMBI-expressing U87-EGFRvIII or LN-229 stable cells in 1.5 μl of PBS were injected at an injection speed of 0.3 μL/min using the syringe pump. To visualize ERK inhibition in U87-EGFRvIII cell implants, 5 days after cell implantation, tumor-bearing mice were i.p. injected with CFz (0.4 μmol, with 1.8 mg P-407) for imaging. […]

[3] = previously characterized; cited from earlier work
[4] = system: ERK; conditions: mouse, in vivo; cited from earlier work
[5] = system: Akt; test: Akt oKiMBI luminescence in HEK293A (caAkt), U87-EGFRvIII and LNCaP cells; format: cell-based, human; conditions: all cell lines: HEK293A (caAkt), U87-EGFRvIII, LNCaP
[6] = system: Akt; test: U87-EGFRvIII cells stably expressing Akt oKiMBI or oKiMBImut, luminescence; format: cell-based, human
Source text: To assess Akt inhibition in human tumor xenografts in mice, either Akt oKiMBI- or oKiMBImut-expressing U87-EGFRvIII stable cell lines were first engineered through lentiviral transduction (FIG. 17a). Fluorescence-activated cell sorting (FACS) was subsequently employed to sort the transduced cells, followed by antibiotics selection to establish polyclonal stable cell lines.

[7] = system: Akt; test: Molecular imaging of Akt inhibition in subcutaneous U87-EGFRvIII tumor model; format: in vivo; conditions: same mice after 2-day interval
Source text: Evaluated next was the capacity of Akt oKiMBI to report Akt inhibition in a subcutaneous tumor model. Engineered U87-EGFRvIII cells that stably express oKiMBI or oKiMBImut were subcutaneously injected at different sites in J:NU mice.

[8] = system: Akt; test: BAR (bioluminescent Akt reporter, FLuc) luminescence in HEK293A (caAkt), U87-EGFRvIII and LNCaP cells; format: cell-based, human; conditions: all tested cell lines
[9] = system: ERK; test: ERK KiMBI cell-based bioluminescent assay, HEK293A cells co-transfected with caMEK
Source text: To develop a luciferase reporter protein whose activity can be activated by ERK inhibition, it was hypothesized that NanoLuc luciferase catalytic activity could be modulated through large ERK-induced conformational changes. Created and tested were fusion proteins of various topologies (FIG. 2a) comprising the NanoLuc NanoBiT fragments, an ERK substrate peptide from Cdc25C^7, and a proline-directed WW phospho-binding domain (WW)^8 from Pin1. In particular, an arrangement was postulated in which binding of phosphorylated substrate (pSub) to WW would force the SmBiT fragment to adopt an unfavorable conformation for LgBiT complementation, would show low luminescence with active ERK and high luminescence with inhibited ERK (FIG. 2b). The KiMBI candidates were screened by co-transfection into HEK293A cells with a constitutively active MEK (caMEK) followed by application of the ERK inhibitor Vx-Ile.
as §1

[10] = system: ERK; test: Molecular imaging of ERK inhibition in subcutaneous U87-EGFRvIII tumor model; format: in vivo, mice; conditions: 2 h after injection, FFz imaging
Experimental: The ability of tKiMBI to report ERK pathway inhibition in tumors in vivo was assessed. Mice were injected subcutaneously with 10^6 tKiMBI-expressing cells on one side and, to control for differences in substrate delivery between injections, tKiMBImut-expressing reporter cells on the other side (FIG. 7a).
Molecular imaging of ERK inhibition in subcutaneously implanted cells. […]

[11] = system: ERK; test: Molecular imaging of ERK inhibition in KiMBI-encoded AAV infected mouse brain; format: in vivo
Experimental: Using CFz, tested was whether tKiMBI could report the BBB-permeance of ERK pathway inhibitors in living mice. tKiMBI-T2A-caMEK or the negative control tKiMBImut-T2A-caMEK were expressed in mouse striatum by AAV transduction (FIG. 9a).
as §2
Molecular imaging of ERK inhibition in KIMBI-encoded AAV infected mouse brain. […]

[12] = system: ERK; test: Imaging of ERK inhibition in intracranially implanted LN-229 cells; format: in vivo, mice; conditions: one week after implantation
Experimental: 3×10^4 LN-229 cells expressing tKiMBI or tKiMBImut were implanted into the striatum, and KiMBI assays were performed one week later.
Molecular imaging of ERK inhibition in intracranially implanted cells. The stereotaxic injection on the 7- to 9-week-old male J:NU mice were similar to the afore-mentioned AAV infection surgery. A Hamilton syringe with a 26-gauge needle was inserted 0.62 mm dorsal and 1.75 mm lateral to the bregma to a depth of 3.5 mm, and after a 2 min wait the needle was pulled back 0.5 mm to allow space for the cell suspension. […]

[13] = system: ERK; test: Time-lapse imaging of ERK inhibition in intracranially implanted U87-EGFRvIII cells; format: in vivo, mice
Experimental: A non-invasive method with the potential for longitudinal studying of drug pharmacokinetics and pharmacodynamics should allow rapid dose and schedule optimization for drug development.
as §2
Time-lapse imaging of ERK inhibition in intracranially implanted cells. One week after implantation of 10^5 KiMBI-expressing U87-EGFRvIII stable cells, the tumor-bearing mice were i.p. injected with CFz (0.2 μmol, with 0.8 mg P-407) for the initial imaging to establish the signal baseline before drug administration.

CC(=O)Nc1cccc(-n2c(=O)n(C3CC3)c(=O)c3c(Nc4ccc(I)cc4F)n(C)c(=O)c(C)c32)c1 [GSK1120212, trametinib]
induction of bioluminescence [1]: ~4 fold
higher tKiMBI signal ([2]; 1 mg/kg i.p., same group of mice): ~150%
BBB permeation [3]: poor BBB permeation
drug level and ERK inhibition in brains of drug-injected mice [4]: no detectable GSK1120212 or ERK inhibition

NC(=O)c1cccc2c(N[C@H](CN3CCC3)c3ccc(Cl)c(C(F)(F)F)c3)ncnc12 [M2698]
oKiMBI luminescence response to Akt inhibitor [5]: significant increase in luminescence
signal response of oKiMBImut cells to drug treatment ([6]; cells expressing oKiMBImut): did not exhibit any signal increase
increase in luminescent signals ([6]; cells stably expressing Akt oKiMBI): ~2.5 fold
inhibition of the Akt pathway reported by Akt oKiMBI [7]: effective inhibition of the Akt pathway
BAR and BARmut response to Akt inhibitor [8]: miniscule positive responses

O=C(NOC[C@H](O)CO)c1ccc(F)c(F)c1Nc1ccc(I)cc1F [PD0325901, mirdametinib]
induction of tKiMBI signal ([9]; AAV plasmids caMEK-T2A-tKiMBI (A1) and tKiMBI-T2A-caMEK (A2), both): approximately 4 fold
induction of bioluminescence [1]: ~4 fold
effect on bioluminescence of control cell lines [1]: slightly reduced bioluminescence
increase in brightness of tKiMBI tumor ([10]; tKiMBI): 100%
increase in brightness of tKiMBImut tumor ([10]; tKiMBImut control): ~10%
bioluminescence of tKiMBI in brain ([11]; 25 mg/kg, CFz imaging, tKiMBI-T2A-caMEK): robustly induced bioluminescence
able to induce a signal increase in KiMBI ([11]; AAV-infected mice brain (discussion)): able to induce a signal increase
increase in tKiMBI signal ([2]; after PD0325901 administration, CFz): ~200%
decrease in tKiMBImut signal ([2]; after PD0325901 administration, control reporter): ~10%
increase in signal from tKiMBI [12]: > 3 fold
return of signal to baseline ([13]; 25 mg/kg i.p., tKiMBI): backed to baseline on the second day
time for bioluminescence signal to rise to plateau ([13]; 25 mg/kg i.p., tKiMBI): ≤ 1 h
time post-treatment at which signal declined to about half ([13]; 25 mg/kg i.p., tKiMBI): around 8 hrs
time until which signal remained high ([13]; 25 mg/kg i.p., tKiMBI): about 4 h
signal increase in control cells ([13]; after 24 h, tKiMBImut control cells): ~1.4 fold
BBB permeation [3]: BBB-permeant

O=C(Nc1ccc2[nH]nc(-c3ccncc3)c2c1)[C@@H]1CCN(CC(=O)N2CCN(c3ccc(-c4ncccn4)cc3)CC2)C1 [SCH772984]
induction of bioluminescence [1]: ~4 fold
effect on bioluminescence of control cell lines [1]: slightly reduced bioluminescence

Cc1cnc(Nc2ccc(F)cc2Cl)nc1-c1c[nH]c(C(=O)N[C@H](CO)c2cccc(Cl)c2)c1 [Vx-11e]
increase in luminescence ([9]; 03 topology KiMBI candidate, 1 μM Vx-11e): ~65%
induction of bKiMBI luminescence by inhibitor ([9]; ERK blue KiMBI (WW F25A)): > 10 fold
